Laboratory results: ChEMBL document CHEMBL1201862, “PubChem BioAssay data set” (2004)
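Dose response: 5 concentrations. Exposure: 48 h. Format: 96-well plates. Endpoint: linear interpolation; highest concentration if not reached. Here, GI50 denotes the concentration required for 50% inhibition of growth.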 The source made the active and inactive calls. No stated cut-off is given here; in the data, active = GI50 up to about 1.1 µM and inactive = higher.

How the values were obtained:
Experiment in all cases: NCI anticancer screen, dose series, 48 h
NCI-H23 = test system: NCI-H23
NCI-H522 = test system: NCI-H522
SW-620 = test system: SW-620
HCT-15 = test system: HCT-15
HOP-62 = test system: HOP-62
DU-145 = test system: DU-145
UACC-62 = test system: UACC-62
OVCAR-8 = test system: OVCAR-8
PC-3 = test system: PC-3
RPMI-8226 = test system: RPMI-8226
NCI-H226 = test system: NCI-H226
HOP-92 = test system: HOP-92
SK-MEL-28 = test system: SK-MEL-28
UACC-257 = test system: UACC-257
KM12 = test system: KM12
BT-549 = test system: BT-549
Malme-3M = test system: Malme-3M
CCRF-CEM = test system: CCRF-CEM
Hs-578T = test system: Hs-578T

| Structure (SMILES) | GI50 (NCI-H23) | GI50 (NCI-H522) | GI50 (SW-620) | GI50 (HCT-15) [nM] | GI50 (HOP-62) | GI50 (DU-145) | GI50 (UACC-62) | GI50 (OVCAR-8) | GI50 (PC-3) | GI50 (RPMI-8226) | GI50 (NCI-H226) | GI50 (HOP-92) | GI50 (SK-MEL-28) | GI50 (UACC-257) | GI50 (KM12) | GI50 (BT-549) | GI50 (Malme-3M) | GI50 (CCRF-CEM) | GI50 (Hs-578T) |
| --- | --- | --- | --- | --- | --- | --- | --- | --- | --- | --- | --- | --- | --- | --- | --- | --- | --- | --- | --- |
| O=CC(=C(I)I)c1ccccc1 | 2.05 µM (inactive) | 2 µM (inactive) | 0.728 µM (active) | 1820 | 7.24 µM (inactive) | 7.45 µM (inactive) | 6.08 µM (inactive) | 2.46 µM (inactive) | 3.7 µM (inactive) | 0.977 µM (active) | 13.4 µM (inactive) | 2.57 µM (inactive) | 2.64 µM (inactive) | 2.9 µM (inactive) | 3.87 µM (inactive) | 4.38 µM (inactive) | 2.15 µM (inactive) | 0.2 µM (active) | 2.83 µM (inactive) |
| CSC(SC)=C1C(=O)NN=C1C | > 100 µM (inactive) | 47 µM (inactive) | > 100 µM (inactive) | > 100000 | > 100 µM (inactive) | > 100 µM (inactive) | > 100 µM (inactive) |  | > 100 µM (inactive) | > 100 µM (inactive) | > 100 µM (inactive) | 35.1 µM (inactive) | > 100 µM (inactive) | > 100 µM (inactive) | > 100 µM (inactive) | > 100 µM (inactive) | > 100 µM (inactive) | > 100 µM (inactive) | > 100 µM (inactive) |
| COc1cc(C2c3cc4c(cc3OC(NCCO)C2C)OCO4)cc(OC)c1OC (centres undefined) | 1.19 µM (inactive) | 0.241 µM (active) | 0.326 µM (active) | 347 | 0.289 µM (active) | 0.678 µM (active) | 0.378 µM (active) | 2.2 µM (inactive) | 0.418 µM (active) | 0.389 µM (active) | 0.644 µM (active) | 0.188 µM (active) | 0.713 µM (active) | 1.61 µM (inactive) | 0.382 µM (active) | 3.66 µM (inactive) | 0.431 µM (active) | 0.197 µM (active) | 0.325 µM (active) |
| COC(=O)/C(C#N)=C1\NC(=O)CC(c2ccccc2)C1C#N (centres undefined) |  | > 100 µM (inactive) | > 100 µM (inactive) | > 100000 | > 100 µM (inactive) | > 100 µM (inactive) | > 100 µM (inactive) | > 100 µM (inactive) | > 100 µM (inactive) | > 100 µM (inactive) | > 100 µM (inactive) | 63.5 µM (inactive) | > 100 µM (inactive) | > 100 µM (inactive) | > 100 µM (inactive) | > 100 µM (inactive) | > 100 µM (inactive) | > 100 µM (inactive) | > 100 µM (inactive) |
